Target: T1, P2Y14 receptor (Rattus norvegicus, UniProt O35881)
T1 sequence (O35881 1-305): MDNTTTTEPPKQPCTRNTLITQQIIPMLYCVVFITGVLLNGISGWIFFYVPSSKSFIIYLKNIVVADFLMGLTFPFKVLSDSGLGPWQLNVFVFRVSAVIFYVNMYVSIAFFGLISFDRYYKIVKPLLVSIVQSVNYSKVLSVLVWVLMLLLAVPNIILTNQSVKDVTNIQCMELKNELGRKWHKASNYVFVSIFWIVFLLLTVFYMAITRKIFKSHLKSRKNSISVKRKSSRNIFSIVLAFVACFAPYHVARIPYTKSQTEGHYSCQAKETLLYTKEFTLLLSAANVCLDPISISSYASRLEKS
Experiment: agonist-stimulated […]GTPγS binding to RBL-2H3 membranes
Format: biochemical

EC50: 8.1 ± 1.6 nM
SMILES: O=c1ccn([C@@H]2O[C@H](COP(=O)(O)OP(=O)(O)O[C@H]3O[C@H](CO)[C@@H](O)[C@H](O)[C@H]3O)[C@@H](O)[C@H]2O)c(=S)[nH]1 [MRS2690, diphosphoric acid 1-α-D-glucopyranosyl ester 2-(2-thiouridin-5’’-yl) ester]

From article PMC2812605 (Biochemical pharmacology, 2009)
